Laboratory results reported in patent US20240207318A1, “CHIMERIC COSTIMULATORY RECEPTORS, CHEMOKINE RECEPTORS, AND THE USE OF SAME IN CELLULAR IMMUNOTHERAPIES” (Iovance Biotherapeutics, Inc., priority 2021, published 2024).
“Also recorded” adds a separate entry of the source.

Columns and labels:
[1] = system: TILs; experiment: Cytokine expression of drug-treated TILs after overnight anti-CD3/CD28 bead stimulation; format: cell-based, human
[2] = system: TILs; experiment: Flow cytometry phenotype of drug-treated TILs (T-cell subsets, surface markers, transcription factors); format: cell-based, human
[3] = system: TILs; experiment: Expansion and viability of TILs treated with drug during ex vivo 22-day expansion; format: cell-based, human; settings: ipatasertib 0.3 or 1 μM, pre-REP and REP or REP only, relative to controls
Procedure: Patient tumors from different indications were received, fragmented, and subjected to an expansion protocol for TIL manufacturing. Different doses (0.3 μM and 1 μM) of the pan-AKT inhibitor ipatasertib were added to the culture during ex vivo expansion. The expansion potential, as well as the phenotypic and functional characteristics were evaluated on the final TIL product. Eight tumors, including tumors from melanoma, NSCLC, head and neck cancer, ovarian cancer, and breast cancer, were used in combination with the Gen 2 process.
Expansion, viability and T cell distribution in control and AKT inhibitor-treated TILs are shown. TILs were left untreated or treated with increasing concentrations of the pan-AKT inhibitor ipatasertib. Treatment was added either during the pre-REP and REP (blue bars) or during the REP stage only (purple bars). Fold expansion and viability of TIL at the end of the 22-day expansion process are shown. Frequency of CD8^+, CD4^+ and CD4^+ (Foxp3^+) cells after the expansion process on cryopreserved cells are also shown.
In this example, the use of decitabine, a DNA hypomethylation agent, in culture as an epigenetic modifier of TIL products was explored. […] Patient tumors (N=8) from different tumor types (non-small cell lung, head and neck, ovarian, and breast cancers) were obtained from donors, fragmented, and subjected to a 22-day expansion protocol for TIL generation. Different doses (10 nM, 30 nM, and 100 nM) of decitabine were added to the culture during ex vivo expansion either during the pre-REP and REP stages or during REP only. The expansion potential as well as the phenotypic and functional characteristics of TILs were evaluated in the final TIL product.
TILs were left untreated (CTRL, gray bars) or treated with increasing concentrations of decitabine. Treatment was added either during the REP stage only (blue bars) or during both pre-REP and REP (green bars).

[4] = molecular target: T1, PD-L1 (human, UniProt Q9NZQ7 19-290, limits assumed); experiment: characterization of the anti-PD-L1 antibody clone; EC50 assay method not given
T1 construct: also called hPD-L1; CD274
T1 sequence (Q9NZQ7 19-290 limits assumed): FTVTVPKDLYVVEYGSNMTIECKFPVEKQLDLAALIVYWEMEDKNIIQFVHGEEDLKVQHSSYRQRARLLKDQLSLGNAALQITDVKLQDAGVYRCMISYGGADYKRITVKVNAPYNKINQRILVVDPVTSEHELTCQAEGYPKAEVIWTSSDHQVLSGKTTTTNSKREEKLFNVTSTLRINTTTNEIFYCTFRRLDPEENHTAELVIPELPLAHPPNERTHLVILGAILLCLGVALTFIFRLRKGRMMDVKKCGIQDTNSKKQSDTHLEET

[5] = AKT inhibition during expansion

CC(C)NC[C@@H](C(=O)N1CCN(c2ncnc3c2[C@H](C)C[C@H]3O)CC1)c1ccc(Cl)cc1 [ipatasertib]
cytokine output following stimulation ([1]; 1 μM ipatasertib at pre-REP and REP, anti-CD3/CD28 beads 1:5 overnight): higher cytokine output
frequency of IFNγ+ TNFα+ CD8+ T cells ([1]; AKT inhibitor treatment): increase
IL-7R and CXCR3 expression on CD8+ TILs [2, 5]: increase
frequency of CD8+ TEMRA cells [2, 5]: increase
population of less differentiated CD39-CD69- cells ([2]; AKT inhibitor during expansion, relative to controls): increases; also recorded: doubled
TOX expression following stimulation ([2]; AKT inhibitor-treated TILs): lower TOX expression
expression of CD38 and transcription factors T-bet and TOX ([2]; CD39-CD69- cells, AKT inhibitor 1 μM): reduced expression
T cell ratios (CD8+, CD4+, CD4+ Foxp3+) ([2]; ipatasertib-treated TILs after expansion): without affecting T cell ratios
TIL expansion (fold expansion) [3]: maintains
TIL viability [3]: maintains
TIL expansion (fold expansion) ([3]; listed as AKT inhibitor): equivalent
TIL viability ([3]; listed as AKT inhibitor): equivalent

B1: anti-PD-L1 antibody clone 38A1-IgG4-HA (antibody)
chain: EVQLVESGGGLVQPGGSLRLSCAASGFTFSNYAMSWVRQAPGKGLEWVSTISGSGGTTYYADSVKGRFTISRDNSKNTLYLQMNSLRVEDTAVYYCAKDWFRSSSPDAFDIWGQGTTVTVSAGGGGSGGGGSGGGGSGAPSYVLTQPPSVSVAPGQTARITCGGNNIGRKIVHWYQQRPGQAPVLVIYYDTDRPAGIPERFSGSNSGNMATLTISTVGAGDEADYYCQVWDTGSDHVVFGGGTKLTVL
EC50 [4]: 0.404 nM

B2: anti-PD-L1 antibody clone 19H9-IgG4-Flag (antibody)
chain: QVQLQESGGGLVKPGGSLRLSCAASGFTFSSYSMNWVRQAPGKGLEWVSGINTAGDTHYPESVKGRFTISRDNARNSLNLQMNSLRAEDTAVYYCVRERVEREYSGYDAFDIWGQGTTVTVSAGGGGSGGGGSGGGGSGAPNFMLTQPHSVSESLGKTVTISCTGSSGSIARKFVQWYQQRPGSSPTTVIYENNQRPSGVSDRFSGSIGSSSNSASLTISGLKTEDEADYYCQSYDSSNVVFGGGTKVTVL
EC50 [4]: 0.125 nM
